Data from PubChem BioAssay (NCI).
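Compound exposure: 48 hours, 5 concentrations, 96-well plates. GI50 = concentration required for 50% inhibition of growth. Definition used: TGI = concentration required for complete inhibition of growth.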

Legend:
Experiment in all cases: NCI-60 cell line screen, 48 h
SNB-75 CNS = tested on: SNB-75 CNS
KM12 colon = tested on: KM12 colon
SF-539 CNS = tested on: SF-539 CNS
NCI-H23 lung = tested on: NCI-H23 lung
SN12C renal = tested on: SN12C renal
SF-295 CNS = tested on: SF-295 CNS
SK-MEL-28 melanoma = tested on: SK-MEL-28 melanoma
NCI/ADR-RES ovarian = tested on: NCI/ADR-RES ovarian
MCF7 breast = tested on: MCF7 breast
PC-3 prostate = tested on: PC-3 prostate

C/C(=N\Nc1ccc([N+](=O)[O-])cc1)C(=O)N(C)Nc1ccccc1
TGI (SNB-75 CNS): > 100 µM
TGI (KM12 colon): 64.6 µM
TGI (SF-539 CNS): > 100 µM
TGI (NCI-H23 lung): > 100 µM
TGI (SN12C renal): > 100 µM
TGI (SF-295 CNS): > 100 µM

CN(O)C(=O)Cc1ccccc1
TGI (SNB-75 CNS): > 100 µM
TGI (KM12 colon): > 100 µM
TGI (SF-539 CNS): > 100 µM
TGI (NCI-H23 lung): > 100 µM
TGI (SN12C renal): > 100 µM
TGI (SK-MEL-28 melanoma): > 100 µM
TGI (SF-295 CNS): > 100 µM

COC1=C(OC)CCC(/C(C#N)=C/c2ccc(OC)c(OC)c2)=C1
TGI (SNB-75 CNS): 43 µM
TGI (KM12 colon): > 100 µM
TGI (SF-539 CNS): > 100 µM
TGI (NCI-H23 lung): > 100 µM
TGI (SN12C renal): > 100 µM
TGI (SK-MEL-28 melanoma): > 100 µM
TGI (SF-295 CNS): > 100 µM

COc1cc2c(cc1C)n(O)c(C)c(C(=O)C/C(=N/NC(=O)C[N+](C)(C)C)C(=O)Nc1cccc(Cl)c1C)[n+]2=O
TGI (SNB-75 CNS): > 100 µM
TGI (KM12 colon): > 100 µM
TGI (SF-539 CNS): > 100 µM
TGI (NCI-H23 lung): > 100 µM
TGI (SN12C renal): > 100 µM
TGI (SK-MEL-28 melanoma): > 100 µM
TGI (SF-295 CNS): > 100 µM

COc1ccc2c(c1)CC[C@@H]1C2CC[C@]2(C)C(=O)NC(=O)CC12 (stereo partly drawn)
TGI (KM12 colon): > 100 µM
TGI (SF-539 CNS): > 100 µM
TGI (NCI-H23 lung): > 100 µM
TGI (SN12C renal): > 100 µM
TGI (SF-295 CNS): > 100 µM

Cc1cc(C)c(C(=O)OC(c2ccccc2)C(c2ccccc2)N2CCOCC2)c(C)c1 (stereo not drawn)
TGI (SNB-75 CNS): > 100 µM
TGI (KM12 colon): > 100 µM
TGI (SF-539 CNS): > 100 µM
TGI (NCI-H23 lung): > 100 µM
TGI (SN12C renal): > 100 µM
TGI (SK-MEL-28 melanoma): > 100 µM
TGI (SF-295 CNS): > 100 µM

O=[N+]([O-])c1ccc(Cl)c(C2SCc3nc4ccccc4n32)c1 (stereo not drawn)
TGI (SNB-75 CNS): 89.9 µM
TGI (KM12 colon): > 100 µM
TGI (SF-539 CNS): > 100 µM
TGI (NCI-H23 lung): > 100 µM
TGI (SN12C renal): > 100 µM
TGI (SK-MEL-28 melanoma): > 100 µM
TGI (SF-295 CNS): > 100 µM

CCC1(CN(C)C)CC/C(=C\c2ccc3c(c2)OCO3)C1=O (stereo not drawn)
TGI (SNB-75 CNS): > 100 µM
TGI (KM12 colon): > 100 µM
TGI (SF-539 CNS): > 100 µM
TGI (NCI-H23 lung): > 100 µM
TGI (SN12C renal): > 100 µM
TGI (SK-MEL-28 melanoma): > 100 µM
TGI (SF-295 CNS): > 100 µM

CCOC(=O)C(C)(C)Oc1ccc2c(-c3ccc(Cl)cc3)cc(=O)oc2c1
TGI (SNB-75 CNS): > 100 µM
TGI (SF-539 CNS): > 100 µM
TGI (NCI-H23 lung): > 100 µM
TGI (SN12C renal): > 100 µM
TGI (SK-MEL-28 melanoma): > 100 µM
TGI (SF-295 CNS): > 100 µM

CCOC(=O)C(C[Si](C)(C)C)P(=O)(OCC)OCC (stereo not drawn)
TGI (SNB-75 CNS): > 100 µM
TGI (KM12 colon): > 100 µM
TGI (SF-539 CNS): > 100 µM
TGI (NCI-H23 lung): > 100 µM
TGI (SN12C renal): > 100 µM
TGI (SK-MEL-28 melanoma): > 100 µM
TGI (SF-295 CNS): > 100 µM

C[Si](C)(C)/C=C/CN1C(=O)CCC1O (stereo not drawn)
TGI (SNB-75 CNS): > 100 µM
TGI (KM12 colon): > 100 µM
TGI (SF-539 CNS): > 100 µM
TGI (NCI-H23 lung): > 100 µM
TGI (SN12C renal): > 100 µM
TGI (SK-MEL-28 melanoma): > 100 µM
TGI (SF-295 CNS): > 100 µM

O=Nc1c(O)ccc2ccccc12
GI50 (SNB-75 CNS): 2.52 µM
TGI (SNB-75 CNS): 14.5 µM
GI50 (KM12 colon): 5.26 µM
TGI (KM12 colon): 18.4 µM
GI50 (SF-539 CNS): 2.59 µM
TGI (SF-539 CNS): 6.29 µM
GI50 (NCI/ADR-RES ovarian): 2.92 µM
TGI (NCI/ADR-RES ovarian): 9.21 µM
GI50 (SN12C renal): 1.75 µM
TGI (SN12C renal): 3.4 µM
GI50 (SK-MEL-28 melanoma): 2.8 µM
TGI (SK-MEL-28 melanoma): 6.6 µM
GI50 (MCF7 breast): 2.03 µM
TGI (MCF7 breast): 4.71 µM
GI50 (PC-3 prostate): 1.85 µM
TGI (PC-3 prostate): 8.29 µM
GI50 (SF-295 CNS): 11.7 µM
TGI (SF-295 CNS): 24.4 µM

COc1ccccc1-n1c(SCc2cc(OC)c(OC)c(OC)c2)nc2ccc(Cl)cc2c1=O
GI50 (SNB-75 CNS): 2.41 µM
TGI (SNB-75 CNS): 32.7 µM
GI50 (KM12 colon): 1.46 µM
TGI (KM12 colon): > 100 µM
GI50 (SF-539 CNS): 3.41 µM
TGI (SF-539 CNS): 19.6 µM
GI50 (NCI-H23 lung): 5.9 µM
TGI (NCI-H23 lung): > 100 µM
GI50 (NCI/ADR-RES ovarian): 2.25 µM
TGI (NCI/ADR-RES ovarian): > 100 µM
GI50 (SN12C renal): 7.81 µM
TGI (SN12C renal): > 100 µM
GI50 (SK-MEL-28 melanoma): 5.76 µM
TGI (SK-MEL-28 melanoma): > 100 µM
GI50 (MCF7 breast): 0.915 µM
TGI (MCF7 breast): > 100 µM
GI50 (PC-3 prostate): 2.65 µM
TGI (PC-3 prostate): > 100 µM

COc1ccc(O)c2c1C(=O)CCCC2=O
TGI (KM12 colon): > 100 µM
TGI (SF-539 CNS): > 100 µM
TGI (NCI-H23 lung): > 100 µM
TGI (SN12C renal): > 100 µM
TGI (SK-MEL-28 melanoma): > 100 µM
TGI (SF-295 CNS): > 100 µM

CC(=O)Nc1ccc(-c2nnc(SCC(=O)Nc3ccc(C)cc3)o2)cc1
TGI (SNB-75 CNS): 58.6 µM
TGI (KM12 colon): 37.8 µM
TGI (SF-539 CNS): 27.3 µM
TGI (NCI-H23 lung): 29.6 µM
TGI (SN12C renal): 30 µM
TGI (SK-MEL-28 melanoma): 31.4 µM
TGI (SF-295 CNS): 35.5 µM

CC(=O)OC1CCC2(C)C(=CC(C3C=C4CC(OC(C)=O)CCC4(C)C4=C3C3CC5OC6(CCC(C)CO6)C(C)C5C3(C)CC4)C3=C2CCC2(C)C3CC3OC4(CCC(C)CO4)C(C)C32)C1 (stereo not drawn)
TGI (SNB-75 CNS): 29.9 µM
TGI (KM12 colon): 35.7 µM
TGI (NCI-H23 lung): 27.9 µM
TGI (NCI/ADR-RES ovarian): 37.7 µM
TGI (SN12C renal): 31.9 µM
TGI (SK-MEL-28 melanoma): 31.5 µM
TGI (MCF7 breast): 21.9 µM
TGI (PC-3 prostate): 25.6 µM
TGI (SF-295 CNS): 26.5 µM

CC(C)C(N)(C(=O)O)c1ccccc1 (stereo not drawn)
TGI (SNB-75 CNS): > 100 µM
TGI (KM12 colon): > 100 µM
TGI (NCI-H23 lung): > 100 µM
TGI (NCI/ADR-RES ovarian): > 100 µM
TGI (SN12C renal): > 100 µM
TGI (SK-MEL-28 melanoma): > 100 µM
TGI (MCF7 breast): > 100 µM
TGI (PC-3 prostate): > 100 µM
TGI (SF-295 CNS): > 100 µM

Cn1c(=O)c2[nH]c(COc3ccc(C(C)(C)C)cc3)nc2n(C)c1=O
GI50 (KM12 colon): 15.9 µM
TGI (KM12 colon): 44 µM
GI50 (SF-539 CNS): 36.7 µM
TGI (SF-539 CNS): > 100 µM
GI50 (NCI-H23 lung): 5.29 µM
TGI (NCI-H23 lung): > 100 µM
GI50 (NCI/ADR-RES ovarian): 8.04 µM
TGI (NCI/ADR-RES ovarian): 60.6 µM
GI50 (SN12C renal): 33.4 µM
TGI (SN12C renal): > 100 µM
GI50 (SK-MEL-28 melanoma): 28.8 µM
TGI (SK-MEL-28 melanoma): > 100 µM
GI50 (MCF7 breast): 17.1 µM
TGI (MCF7 breast): 62.8 µM
GI50 (PC-3 prostate): 6.11 µM
TGI (PC-3 prostate): 53.3 µM
GI50 (SF-295 CNS): 4.03 µM
TGI (SF-295 CNS): > 100 µM

O=c1cccccc1NCCCCNc1cccccc1=O
TGI (SNB-75 CNS): > 100 µM
TGI (KM12 colon): > 100 µM
TGI (NCI-H23 lung): > 100 µM
TGI (SN12C renal): > 100 µM
TGI (SK-MEL-28 melanoma): > 100 µM
TGI (SF-295 CNS): > 100 µM

COc1ccc2c(c1)OC13Oc4cc(OC)ccc4C=C1CCCC3=C2
GI50 (KM12 colon): 18.7 µM
TGI (KM12 colon): > 100 µM
GI50 (SF-539 CNS): > 100 µM
TGI (SF-539 CNS): > 100 µM
GI50 (NCI-H23 lung): > 100 µM
TGI (NCI-H23 lung): > 100 µM
GI50 (NCI/ADR-RES ovarian): > 100 µM
TGI (NCI/ADR-RES ovarian): > 100 µM
GI50 (SN12C renal): > 100 µM
TGI (SN12C renal): > 100 µM
GI50 (SK-MEL-28 melanoma): > 100 µM
TGI (SK-MEL-28 melanoma): > 100 µM
GI50 (MCF7 breast): 4.8 µM
TGI (MCF7 breast): > 100 µM
GI50 (PC-3 prostate): > 100 µM
TGI (PC-3 prostate): > 100 µM
GI50 (SF-295 CNS): > 100 µM
TGI (SF-295 CNS): > 100 µM

CC[C@@H]1OC2(C)CC(S(=O)(=O)c3ccccc3)CC1O2 (stereo partly drawn)
TGI (SNB-75 CNS): > 100 µM
TGI (KM12 colon): > 100 µM
TGI (SF-539 CNS): > 100 µM
TGI (NCI-H23 lung): > 100 µM
TGI (SN12C renal): > 100 µM
TGI (SK-MEL-28 melanoma): > 100 µM
TGI (SF-295 CNS): > 100 µM

COc1cc(C2C(C(=O)Nc3ccccc3)=C(C)NC(C)=C2C(=O)Nc2ccccc2)ccc1O
TGI (SNB-75 CNS): > 100 µM
TGI (KM12 colon): > 100 µM
TGI (SF-539 CNS): 52.9 µM
TGI (NCI-H23 lung): > 100 µM
TGI (SN12C renal): > 100 µM
TGI (SK-MEL-28 melanoma): > 100 µM
TGI (SF-295 CNS): > 100 µM

O=c1c([Se]c2coc3ccccc3c2=O)coc2ccccc12
TGI (SNB-75 CNS): 29.1 µM
TGI (KM12 colon): 23.4 µM
TGI (SF-539 CNS): 24.2 µM
TGI (NCI-H23 lung): 29.6 µM
TGI (SN12C renal): 28.2 µM
TGI (SK-MEL-28 melanoma): 30.8 µM
TGI (SF-295 CNS): 13.7 µM
